Laboratory results as given in ChEMBL document CHEMBL4041531, “Design, synthesis, and biological evaluation of novel 1-oxo-1,2,3,4-tetrahydropyrazino[1,2-a]indole-3-carboxamide analogs in MCF-7 and MDA-MB-468 breast cancer cell lines” (2017).
Active and inactive are the calls of the source. The calls are words filed in the database; no cut-off is given here.

Columns and labels:
[1] = test system: MCF7; assay: Cytotoxicity against human MCF7 cells assessed as cell viability at 30 uM after 48 hrs by MTT assay relative to control; format: functional; conditions: MCF7, 48 h, read-out: Activity
[2] = test system: MDA-MB-468; assay: Cytotoxicity against gefitinib-resistant human MDA-MB-468 cells assessed as cell viability at 30 uM after 48 hrs by MTT assay relative to control; format: functional; conditions: MDA-MB-468, 48 h, read-out: Activity
[3] = test system: MDA-MB-468; assay: Cytotoxicity against gefitinib-resistant human MDA-MB-468 cells assessed as reduction in cell viability after 48 hrs by MTT assay; format: functional; conditions: MDA-MB-468, 48 h
[4] = test system: MCF7; assay: Cytotoxicity against human MCF7 cells assessed as cell viability at 10 uM after 48 hrs by MTT assay relative to control; format: functional; conditions: MCF7, 48 h, read-out: Activity
[5] = test system: MDA-MB-468; assay: Cytotoxicity against gefitinib-resistant human MDA-MB-468 cells assessed as cell viability at 10 uM after 48 hrs by MTT assay relative to control; format: functional; conditions: MDA-MB-468, 48 h, read-out: Activity
[6] = test system: MCF7; assay: Cytotoxicity against human MCF7 cells assessed as reduction in cell viability after 48 hrs by MTT assay; format: functional; conditions: MCF7, 48 h
[7] = Selectivity ratio of GI50 for human MCF7 cells to GI50 for gefitinib-resistant human MDA-MB-468 cells; format: functional
[8] = test system: MCF7; assay: Cytotoxicity against human MCF7 cells assessed as reduction in cell viability at 1 uM after 48 hrs in presence of 1 to 10 uM gefitinib by MTT assay; format: functional, cell-based
[9] = test system: MDA-MB-468; assay: Cytotoxicity against gefitinib-resistant human MDA-MB-468 cells assessed as cell viability at 10 uM after 48 hrs in presence of 1 uM gefitinib by MTT assay relative to control; format: functional
[10] = test system: MDA-MB-468; assay: Cytotoxicity against gefitinib-resistant human MDA-MB-468 cells assessed as cell viability at 3 uM after 48 hrs in presence of 1 uM gefitinib by MTT assay relative to control; format: functional
[11] = test system: MDA-MB-468; assay: Cytotoxicity against gefitinib-resistant human MDA-MB-468 cells assessed as cell viability at 1 uM after 48 hrs in presence of 1 uM gefitinib by MTT assay relative to control; format: functional; conditions: MDA-MB-468, 48 h, read-out: Activity
[12] = test system: MCF7; assay: Cytotoxicity against human MCF7 cells assessed as cell viability at 1 uM after 48 hrs by MTT assay relative to control; format: functional; conditions: MCF7, 48 h, read-out: Activity
[13] = test system: MCF7; assay: Cytotoxicity against human MCF7 cells assessed as cell viability at 3 uM after 48 hrs by MTT assay relative to control; format: functional; conditions: MCF7, 48 h, read-out: Activity
[14] = test system: MDA-MB-468; assay: Cytotoxicity against gefitinib-resistant human MDA-MB-468 cells assessed as cell viability at 10 uM after 48 hrs in presence of 3 uM gefitinib by MTT assay relative to control; format: functional
[15] = test system: MDA-MB-468; assay: Cytotoxicity against gefitinib-resistant human MDA-MB-468 cells assessed as cell viability at 3 uM after 48 hrs in presence of 3 uM gefitinib by MTT assay relative to control; format: functional; conditions: MDA-MB-468, 48 h, read-out: Activity
[16] = test system: MDA-MB-468; assay: Cytotoxicity against gefitinib-resistant human MDA-MB-468 cells assessed as cell viability at 1 uM after 48 hrs in presence of 3 uM gefitinib by MTT assay relative to control; format: functional
[17] = test system: MDA-MB-468; assay: Cytotoxicity against gefitinib-resistant human MDA-MB-468 cells assessed as cell viability at 10 uM after 48 hrs in presence of 10 uM gefitinib by MTT assay relative to control; format: functional; conditions: MDA-MB-468, 48 h, read-out: Activity
[18] = test system: MDA-MB-468; assay: Cytotoxicity against gefitinib-resistant human MDA-MB-468 cells assessed as cell viability at 3 uM after 48 hrs in presence of 10 uM gefitinib by MTT assay relative to control; format: functional
[19] = test system: MDA-MB-468; assay: Cytotoxicity against gefitinib-resistant human MDA-MB-468 cells assessed as cell viability at 1 uM after 48 hrs in presence of 10 uM gefitinib by MTT assay relative to control; format: functional
[20] = test system: MDA-MB-468; conditions: Homo sapiens, at 10 µM
Description: Inhibition of EGFR in gefitinib-resistant human MDA-MB-468 cells assessed as reduction in Akt phosphorylation at 10 uM after 6 hrs by Western blot method

[21] = test system: MDA-MB-468; conditions: Homo sapiens, at 10 µM; remark: listed apart in the source
Description: Inhibition of EGFR in gefitinib-resistant human MDA-MB-468 cells assessed as reduction in Akt phosphorylation at 10 uM after 18 hrs by Western blot method

[22] = test system: MCF7; assay: Potency index, ratio of gefitinib GI50 to compound GI50 for human MCF7 cells; format: functional

| SMILES | viability at 30 µM [1] [%] | viability at 30 µM [2] [%] | GI50 [3] [µM] | other results |
| --- | --- | --- | --- | --- |
| O=C1N[C@H](C(=O)Nc2ccccc2)Cn2c1cc1ccccc12 | 87.3 | 74.5 |  |  |
| O=C1N[C@H](C(=O)NC2CCCCC2)Cn2c1cc1ccccc12 | 80.7 | 73.1 |  |  |
| COc1cccc(CNC(=O)[C@@H]2Cn3c(cc4ccccc43)C(=O)N2)c1 | 68.6 | 70.5 |  |  |
| CCCNC(=O)[C@@H]1Cn2c(cc3ccccc32)C(=O)N1 | 83.9 | 88 |  |  |
| O=C1N[C@H](C(=O)NCc2cccs2)Cn2c1cc1ccccc12 | 61.7 | 39.2 |  |  |
| CCCCCCNC(=O)[C@@H]1Cn2c(cc3ccccc32)C(=O)N1 | 71.2 | 61.8 |  |  |
| O=C1N[C@H](C(=O)NCc2ccc(C(F)(F)F)cc2)Cn2c1cc1ccccc12 | 60.2 | 70.5 |  |  |
| O=C1N[C@H](C(=O)NCc2cccc(C(F)(F)F)c2)Cn2c1cc1ccccc12 | 59.1 | 62.4 |  |  |
| O=C1N[C@@H](C(=O)NCc2ccco2)Cn2c1cc1ccccc12 | 82.5 | 21.2 | 15.9 |  |
| C=CCNC(=O)[C@@H]1Cn2c(cc3ccccc32)C(=O)N1 | 104 | 94.7 |  |  |
| CC(C)NC(=O)[C@@H]1Cn2c(cc3ccccc32)C(=O)N1 | 84.4 | 88.1 |  |  |
| O=C1N[C@H](C(=O)NCCc2ccc(O)cc2)Cn2c1cc1ccccc12 | 85.5 | 63.1 |  |  |
| Cc1ccc(CNC(=O)[C@@H]2Cn3c(cc4ccccc43)C(=O)N2)cc1 | 68 | 61.5 |  |  |
| COC(=O)[C@@H]1Cn2c(cc3ccccc32)C(=O)N1 | 85.1 | 102 |  |  |
| O=C1N[C@@H](C(=O)NCc2ccccc2)Cn2c1cc1ccccc12 | 61.8 | 45 | 24 |  |
| CN1C(=O)c2cc3ccccc3n2C[C@H]1C(=O)NCc1ccco1 |  |  | 15 | viability at 10 µM [4]: 54.1%; viability at 10 µM [5]: 56.1% |
| O=C1N[C@H](C(=O)NCc2cccc(Cl)c2)Cn2c1cc1ccccc12 | 61.7 | 34.8 | 23.4 |  |
| Cc1ccc(CNC(=O)[C@@H]2Cn3c(cc4ccccc43)C(=O)N2Cc2ccccc2)o1 |  |  |  | viability at 10 µM [4]: 68.7%; viability at 10 µM [5]: 63.1% |
| O=C(NCc1ccco1)[C@@H]1Cn2c(cc3ccccc32)C(=O)N1Cc1ccccc1 |  |  | 5.2 | GI50 [6]: 19.3 µM; viability at 10 µM [4]: 58.5%; viability at 10 µM [5]: 23.3%; RatioGI50 [7]: 3.7; Activity [8]: Active; Activity [9]: 24.3%; Activity [10]: 40.5%; viability at 1 µM [11]: 66.3%; viability at 1 µM [12]: 93.6%; viability at 3 µM [13]: 62.5%; Activity [14]: 19.6%; viability at 3 µM [15]: 34.3%; Activity [16]: 61%; viability at 10 µM [17]: 15.6%; Activity [18]: 23.8%; Activity [19]: 40.8%; inhibition [20]: Active; inhibition [21]: Active |

| SMILES | viability at 30 µM [1] [%] | viability at 30 µM [2] [%] | GI50 [3] [µM] | other results |
| --- | --- | --- | --- | --- |
| Cc1ccc(CNC(=O)[C@@H]2Cn3c(cc4ccccc43)C(=O)N2)o1 | 60.2 | 43 |  |  |
| CNC(=O)[C@@H]1Cn2c(cc3ccccc32)C(=O)N1 | 77.5 | 82.6 |  |  |
| COC(=O)[C@@H]1Cn2c(cc3ccccc32)C(=O)N1Cc1ccccc1 |  |  |  | viability at 10 µM [4]: 92.6%; viability at 10 µM [5]: 98.8% |
| O=C1N[C@H](C(=O)O)Cn2c1cc1ccccc12 | 99.7 | 76.2 |  |  |
| Nc1cccc(CNC(=O)[C@@H]2Cn3c(cc4ccccc43)C(=O)N2)c1 | 70.5 | 67.7 |  |  |
| O=C(NCc1ccccc1)[C@@H]1Cn2c(cc3ccccc32)C(=O)N1Cc1ccccc1 |  |  | 7.6 | GI50 [6]: 9.6 µM; viability at 10 µM [4]: 47.1%; viability at 10 µM [5]: 28% |
| C=CCN1C(=O)c2cc3ccccc3n2C[C@H]1C(=O)NCc1ccco1 |  |  | 18.5 | viability at 10 µM [4]: 98.2%; viability at 10 µM [5]: 58.4% |
| O=C(NCc1cccs1)[C@@H]1Cn2c(cc3ccccc32)C(=O)N1Cc1ccccc1 |  |  | 3.8 | GI50 [6]: 4.6 µM; viability at 10 µM [4]: 35.8%; viability at 10 µM [5]: 18.5%; RatioGI50 [22]: 4.5; inhibition [20]: Active; inhibition [21]: Active |
| Nc1ccc(CNC(=O)[C@@H]2Cn3c(cc4ccccc43)C(=O)N2)cc1 | 76 | 65.4 |  |  |
| O=C1N[C@H](C(=O)NCc2ccc(Cl)cc2)Cn2c1cc1ccccc12 | 66.1 | 60.3 |  |  |
| O=C1N[C@H](C(=O)NCc2ccc(F)cc2)Cn2c1cc1ccccc12 | 59.7 | 63.1 |  |  |
| Cc1cccc(CNC(=O)[C@@H]2Cn3c(cc4ccccc43)C(=O)N2)c1 | 78.1 | 66.3 |  |  |
| COC(=O)[C@H]1Cn2c(cc3ccccc32)C(=O)N1 | 79.7 | 82.4 |  |  |
| O=C(NCc1cccc(Cl)c1)[C@@H]1Cn2c(cc3ccccc32)C(=O)N1Cc1ccccc1 |  |  | 9.5 | GI50 [6]: 8.3 µM; viability at 10 µM [4]: 38.2%; viability at 10 µM [5]: 46.7% |
| COc1ccc(CNC(=O)[C@@H]2Cn3c(cc4ccccc43)C(=O)N2)cc1 | 68.8 | 74.7 |  |  |
| COc1cc2ncnc(Nc3ccc(F)c(Cl)c3)c2cc1OCCCN1CCOCC1 [GEFITINIB] | 16.2 | 6.7 | 9.7 | GI50 [6]: 20.8 µM; viability at 10 µM [4]: 89.7%; viability at 10 µM [5]: 49.1%; viability at 1 µM [12]: 73.1%; viability at 3 µM [13]: 72.6% |
| O=C1N[C@H](C(=O)NCc2ccccc2)Cn2c1cc1ccccc12 | 71.4 | 48.8 | 28.9 |  |
| O=C1N[C@H](C(=O)NCc2ccco2)Cn2c1cc1ccccc12 | 62.1 | 39.7 | 23.1 |  |
